Like-named read-outs stand apart in the source and are kept apart here.
Legend:
[1] = target: T1, IκB kinase (IKK enzyme preparation) (Homo sapiens, UniProt O14920); experiment: IKK-Enzyme ELISA; type: biochemical
T1 sequence (O14920 1-756): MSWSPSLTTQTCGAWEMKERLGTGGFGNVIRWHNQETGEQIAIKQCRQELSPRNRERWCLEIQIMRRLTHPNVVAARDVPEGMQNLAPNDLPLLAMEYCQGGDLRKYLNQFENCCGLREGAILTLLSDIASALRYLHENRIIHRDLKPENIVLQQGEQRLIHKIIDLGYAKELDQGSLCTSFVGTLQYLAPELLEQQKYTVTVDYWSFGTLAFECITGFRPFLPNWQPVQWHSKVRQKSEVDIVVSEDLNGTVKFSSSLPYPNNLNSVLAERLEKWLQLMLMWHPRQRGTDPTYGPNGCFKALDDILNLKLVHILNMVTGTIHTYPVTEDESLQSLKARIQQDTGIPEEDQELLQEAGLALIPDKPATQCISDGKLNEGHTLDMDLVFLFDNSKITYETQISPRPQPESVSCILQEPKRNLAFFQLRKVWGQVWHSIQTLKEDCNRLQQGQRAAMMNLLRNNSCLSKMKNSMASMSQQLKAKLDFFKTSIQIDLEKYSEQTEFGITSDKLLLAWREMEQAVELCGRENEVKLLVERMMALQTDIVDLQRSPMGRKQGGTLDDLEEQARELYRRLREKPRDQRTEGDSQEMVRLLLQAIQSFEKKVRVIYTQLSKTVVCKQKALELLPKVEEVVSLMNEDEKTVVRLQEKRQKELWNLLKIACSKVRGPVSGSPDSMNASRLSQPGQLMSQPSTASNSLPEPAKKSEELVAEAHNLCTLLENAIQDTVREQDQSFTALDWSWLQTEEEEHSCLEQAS
Protocol: The assay buffer has the following composition (50 mM HEPES, 10 mM MgCl2, 10 mM β-Glycerophosphate, 2 μM Microcystin-LR, 0.01% NP-40, 5 mM DTT).
The IKK enzyme preparation was diluted 1:50 (in-house-made preparation) plus test compound in DMSO (final concentration in well: 2%).
The assay procedures were as follows:
Incubation of enzyme and compound for 30 min;
pSer36-IkB Peptide (Substrate): 40 μM;
Incubation for 45 min and Addition of anti-pSer32-pSer36-IkB Peptid-antibody;
Incubation for 45 min and transfer to protein-G-coated plate;
Incubation for 90 min followed by 3× washing;
Addition of streptavidin-HRP, then incubation 45 min followed by 6× washing;
Addition of TMB and Incubation for 15 min; and
Stop solution and read using photometer.

[2] = system: IL-1β-induced NF-κB activation; experiment: NF-κB-Luciferase Reporter Mouse Model, dose response determination; type: in vivo, Balb/c female mice; conditions: for effect on IL-1β-induced NF-κB activity: intranasal dosing 0.3-10 mg/kg, FIGS. 1 and 2
Protocol: A. NF-κB-Luciferase Reporter Mouse Model Methods employed for mouse imaging studies with Compound (A) and Compound (B). General Description Compounds were used as nanomilled suspensions in 0.2% Tween-80 in PBS and were dosed through the intranasal route. Intranasal drug and inflammatory stimulus administration: Mice are anesthetized in 4% is isoflurane gas in oxygen. A volume of 25 μl is applied to each nostril and the mice are allowed to breathe in the suspension. Balb/c female mice at 6-8 weeks of age were used for studies in which AdV-NFκB-luciferase reporter was instilled in the lung. To imagine mice, they are anesthetized with 4% isoflurane in oxygen. Luciferin is delivered i.p. at a dose of 150 mg/kg. 10 minutes after luciferin injection, the animals are imaged in an IVIS200 system (Xenogen) with a one-minute bioluminescent exposure. Alternatively, 10-15 minutes post luciferin administration, mice are rapidly euthanized and internal tissues are dissected and imaged ex vivo. B. Dose Response Determination 1-2×10^8 pfu adenovirus-NFκB-luciferase is delivered intranasally 3-5 days prior to stimulation (i.n.) with an inflammatory stimulus (IL-1β or LPS). Animals are dosed i.n. with 0.3-10 mg/kg of compound 30 min—1 h prior to challenge with 0.5 μg LPS or 50 ng IL-1β. Animals are then imaged once or several times from 1 h to 24 h after the inflammatory stimulus is administered.

[3] = Pharmacokinetic procedures: compound levels in lung and plasma after intra-tracheal instillation; type: in vivo, Male Hartley guinea pigs; conditions: for systemic exposure after intratracheal administration: i.t. administration; for Kp at 1 h: male, Hartley, guinea pig, lung and plasma, other: intra-tracheal instillation, i.t. instillation 0.01-0.3 mg/kg, 1 h after dosing, depending on the dose, read-out: lung to plasma ratio
Protocol: C. Pharmacokinetic Procedures
Male Hartley guinea pigs (450-550 g) previously sensitized with ovalbumin were used for the determination of compound levels in lung and plasma. Nanomilled suspensions of Compound (A) and Compound (B) were dosed via intra-tracheal instillation at 0.01, 0.03, 0.1 and 0.3 mg/kg. One hour after dosing, animals were euthanized (Euthasol), and 1 mL blood samples were obtained by cardiac puncture and collected into heparin-coated syringes. Plasma was separated from the cellular component of the blood by centrifugation, and stored at −80° C. until assayed. Lungs were dissected out, blotted dry, weighted and stored in 20-25 mL glass vials individually at −80° C. until assayed for compound levels.
The lung to plasma ratio for Compound (A) ranges from 143 to 284 (depending on the dose) whereas the lung to plasma ratio for Compound (B) ranges from 13 to 44 (depending on the dose). These ratios were obtained by dividing the lung compound levels to that of the corresponding plasma levels at the same dose.

[4] = read-out: IC50 (nM) 50 μM ATP, 50 μM ATP
[5] = read-out: IC50 (nM) 1 mM ATP, 1 mM ATP

SMILES: CNc1nccc(-c2cc3cc(C(=O)N[C@@H](CN(c4ccccc4)c4ccccn4)C(=O)OC)ccc3[nH]2)n1 [(C)]
- IC50 [1, 4]: 16.8 nM
- IC50 [1, 5]: 378 nM

SMILES: CNc1nccc(-c2cc3cc(C(=O)N[C@@H](CN(c4ccccc4)c4ccccn4)C(=O)O)ccc3[nH]2)n1 [Compound (A), 2-{[2-(2-Methylamino-pyrimidin-4-yl)-1H-indole-5-carbonyl]-amino}-3-(phenyl-pyridin-2-yl-amino)-propionic acid]
- IC50 [1, 4]: 0.4 nM
- IC50 [1, 5]: 0.08 nM
- ED50 ([2]; Mus musculus, intranasal nanomilled suspension, 0.3-10 mg/kg, IL-1β challenge, lung bioluminescence, read-out: estimated ED50, IL-1β-induced NF-κB activation): ~1 mg/kg
- effect on IL-1β-induced NF-κB activity [2]: inhibited in a dose-dependent manner
- systemic exposure after oral administration [3]: low systemic exposure
- systemic exposure after intratracheal administration [3]: low systemic exposure
- Kp at 1 h [3]: 143 to 284

SMILES: CNc1nccc(-c2cc3cc(C(=O)N[C@@H](CN(c4ccccc4)c4ncccn4)C(=O)O)ccc3[nH]2)n1 [(D)]
- IC50 [1, 5]: 3.8 nM

SMILES: CNc1nccc(-c2cc3cc(C(=O)N[C@@H](CN(c4ccccc4)c4ccccn4)C(=O)NOC)ccc3[nH]2)n1 [Compound (B)]
- IC50 [1, 4]: 0.8 nM
- IC50 [1, 5]: 56.4 nM
- effect on IL-1β-induced NF-κB activity [2]: inhibited in a dose-dependent manner
- lung exposure after i.t. instillation ([3]; 0.3 mg/kg i.t., FIG. 3): low relative to Compound (A)
- systemic exposure after oral administration [3]: highly systemically available
- systemic exposure after intratracheal administration [3]: highly systemically distributed
- Kp at 1 h [3]: 13 to 44

From patent US20070142417A1, “Substantially Pure 2-{[2-(2-Methylamino-Pyrimidin-4-YL)-1H-Indole-5-Carbonyl]-Amino}-3-Phenylpyridin-2-YL-Amino)-Propionic Acid as an IkB Kinase Inhibitor” (AVENTIS PHARMACEUTICALS INC, priority 2005, published 2007)
